Data on two substances can be found in US5547856A, “Hepatocyte growth factor variants” (Genentech, Inc., priority 1993, dated 1996).

pKd: −log10 of the molar value.

Assay [1] relates to cell surface receptor on hepatocytes. To be noted: Higuchi and Nakamura 1991; cited from earlier work.
Assay [2] relates to 145 kDa β-subunit of the HGF receptor in A549 cells. The experiment in a line: Induction of tyrosine phosphorylation of the HGF receptor on A549 cells (Western blot). It is filed as cell-based, human. The note with it: serum-starved A549 cells, 200 ng/mL purified protein, 5 minutes. How it is done: FIG. 4: Western blot of ligand-induced tyrosine-phosphorylation on the 145 kDa β-subunit of the HGF receptor by wild-type rhuHGF, single-chain or protease domain huHGF variants. […] Molecular masses (kilodaltons) are as indicated.
Serum-starved cells were incubated without or with 200 ng/mL rhuHGF for 5 minutes at 37° C. and extracted with lysis buffer containing 50 mM Hepes, 150 mM NaCl, 1.5 mM MgCl2, 1 mM EGTA, 10% Glycerol, 1% Triton X-100 and a cocktail of protease inhibitors. The lysates were immunoprecipitated with anti-Met COOH antibodies and blotted with anti-phosphotyrosine antibodies (see Western blotting above).
(In general: Immunoblotting shows a protein as a band on a membrane.)

In assay [3] the test system is rat hepatocytes in primary culture. The experiment in a line: Mitogenic assay: induction of DNA synthesis (3H-TdR incorporation) of rat hepatocytes in primary culture. The format is cell-based. The note with it: * = did not reach the same absolute level as wild-type huHGF. As for the experimental part: The biological activity of WT huHGF and variants was measured by their abilities to induce DNA synthesis of rat hepatocytes in primary culture. […] Briefly, the livers of female Sprague Dawley rats (160-180 g) were perfused through the portal vein with 100 mL of Ca^++ free Hepes buffered saline containing 0.02% Collagenase type IV (Sigma). After 20 minutes the liver was removed, placed in buffer, gently stirred to separate hepatocytes from connective tissue and blood vessels, and filtered through nylon mesh. Cells were then washed by centrifugation, resuspended at 1×10^5 cells/mL in Williams Media E (Gibco) containing Penicillin (100 U/ml), Streptomycin ([…]), L-Glutamine (2 mM), trace elements (0.01%), transfertin ([…]) and Aprotinin ([…]). […] After 48 hours incubation at 37° C., 0.5 mCi 3H-TdR (15 Ci/mmole, Amersham) was added to each well and incubated for an additional 16 hours. Cells were harvested on filter papers, which were washed, dried and counted in a Beckman counter after addition of scintillation liquid. For each huHGF variant, the specific activity (SA) expressed in units/mg was calculated at half-maximal proliferation (defined as 1 unit/mL) using the HGF concentration obtained in ELISA.

Assay [4] has as its target extracellular domain of the human HGF receptor (huHGFr) fused to the Fc constant region of an human IgG. The experiment in a line: Soluble HGF receptor competitive binding assay (displacement of 125I-rhuHGF). To be noted: for pKd: binding to HGF receptor:IgG fusion protein, calculated at the IC50 from fitted inhibition curves. As for the experimental part:
The coding sequence of the extracellular domain of the huHGFr was fused to those of the human IgGl heavy chain in a two-step process. […] The 5' primer (located in the vector upstream of the HeFr coding sequences) and the 3' primer (5'-[…]-3') (SEQ. ID. NO: 21) were used in a 100 μl reaction as described above except that the extension time at 72° C. was 3 minutes, and 40 ng of the full length HGFr expression vector was used as template. […] Sequencing of the construct was carried out as described above.
The binding assay was performed in breakable microtiter plates (Nunc) coated o/n at 4° C. with […] of rabbit-anti-human IgG Fc specific antibody (Jackson Immunoresearch) and plates were carefully washed with PBS containing 0.05% Tween 20 (Biorad). […] To each well […] of serial dilutions (1:25-1:6000) of cell supernatants, purified CHO-expressed rhuHGF ([…]) or medium were added in duplicates. Subsequently, […] of 50 pM of HGF receptor:IgG fusion protein were added and the plates were incubated with gentle shaking. After 4 hours, when equilibrium was reached, plates were washed and wells were individually counted in a gamma-counter. The amount of nonspecifically bound radioactivity was estimated by incubating HGF receptor:IgG with a 500-fold excess of unlabelled rhuHGF.

Regarding “huHGF: human hepatocyte growth factor as studied in the literature for binding to hepatocytes”, in assay [1], the pKd (as a rule, the Kd on a negative log10 scale, so that one unit is a factor of ten) was 10.49 to 10.62.
Take “wt rhuHGF: wild-type recombinant human hepatocyte growth factor, 728 amino acid form (Miyazawa et al. 1989) [reference compound]”: the “tyrosine phosphorylation of the HGF receptor (in words)” value in assay [2] is given as “led to the phosphorylation on tyrosine of the 145 kDa β-subunit of the HGF receptor”. The “SA mut/wt +/- SD” value in assay [3] (Table 2, specific mitogenic activity relative to wt rhuHGF) came to 1. In assay [3] (Table 3, alterations near or within the hairpin domain), the “SA +/- mut/wt” value came out at 1. The Kdwt/mut in assay [4] (Table 2, Kd ratio wild type/mutant) amounted to 1. Further, the pKd was 10.15 in assay [4] and 10.15 to 10.30 in assay [4] (listed as WT rhuHGF).
